Patent US6437184B1, “Oxime compounds, their use, and intermediates for their production” (Sumitomo Chemical Company, Limited, priority 1997, dated 2002)
Like-named read-outs stand apart in the source and are kept apart here.

What was measured:
Format in all cases: in vivo
Plutella xylostella = experiment: Insecticidal test against Plutella xylostella; conditions: 96 h
Description: To a water dilution (50 ppm) of a test compound formulation obtained according to Formulation Example 1 was added a spreading agent (New RINOU available from Nihon Noyaku K.K.) at a dilution ratio of 3000-fold. The dilution was sprayed over potted cabbages at the four to five leaf stage at a volume of 25 ml per pot. After the treated plants were air dried, ten third-instar larvae of Plutella xylostella were set free on each pot. After 4 days, the mortality was determined.

Helicoverpa armigera = experiment: Insecticidal test against Helicoverpa armigera; conditions: 120 h, 100 ppm water dilution, cotton leaf fragment immersed 10 seconds, third-instar larvae, after 5 days
Description: A cotton leaf fragment (diameter, 5 cm) was immersed for 10 seconds Lin a water dilution (100 ppm) of a test compound formulation obtained according to Formulation Example 1. This fragment was taken out from the dilution, air dried, and placed in a polyethylene cup having a diameter of 5.5 cm. One third-instar larva of Helicoverpa armigera was set free in each cup. Ten larvae were used for each treatment. After 5 days, the mortality of the larvae was determined.

Cydia pomonella = experiment: Insecticidal test against Cydia pomonella; conditions: 168 h, 100 ppm water dilution, 0.2 ml on surface of artificial diet, eggs just before hatching, after 7 days
Description: A water dilution (100 ppm) of a test compound formulation obtained according to Formulation Example 1 was added dropwise at a volume of 0.2 ml and spread over the surface of an artificial diet having a weight of 3 g, which had been prepared in a 30 ml polyethylene cup. After air drying, placed in the cup was a piece of wax paper (about 2.5 cm square) having about 20 eggs which had been laid by Cydia pomonella and were just before hatching. Four pieces of such wax paper were used for each treatment. After 7 days, the mortality of the larvae was determined.

Musca domestica = experiment: Insecticidal test against Musca domestica; conditions: 24 h
Description: In the bottom of a polyethylene cup having a diameter of 5.5 cm was placed a piece of filter paper having the same size. A 200-fold water dilution (500 ppm) of a test compound formulation obtained according to Formulation Example 1 was added dropwise at a volume of 0.7 ml on the filter paper, and about 30 mg of sucrose as a diet was uniformly placed thereon. Ten female adults of houseflies (Musca domestica) were set free in the cup, and the cup was kept covered. After 1 day, the survival of the adults was determined to determine the mortality.

[1] = 50 ppm water dilution sprayed over potted cabbages, 25 ml per pot, third-instar larvae, after 4 days, read-out: mortality
[2] = 500 ppm water dilution, 0.7 ml on filter paper with sucrose, female adults, after 1 day, read-out: mortality

FC(F)(F)c1ccc(C=NOCCCOc2c(Cl)cc(OCC=C(Cl)Cl)cc2Cl)cc1 [(524), 4-(trifluoromethyl)benzaldehyde O-(3-(2,6-dichloro-4-(3,3-dichloro-2-propenyloxy)phenoxy)propyl)oxime]
mortality at 50 µg/mL (Plutella xylostella; [1]): ≥ 80%

CC(=NOCCCCOc1c(Cl)cc(OCC=C(Cl)Cl)cc1Cl)C(C)(C)C [(562), 3,3-dimethyl-2-butanone O-(4-(2,6-dichloro-4-(3,3-dichloro-2-propenyloxy)phenoxy)butyl)oxime]
mortality at 100 µg/mL (Helicoverpa armigera): ≥ 80%

ClC(Cl)=CCOc1cc(Cl)c(OCCCCON=C2CCOCC2)c(Cl)c1 [(573), tetrahydro-4H-pyran-4-one O-(4-(2,6-dichloro-4-(3,3-dichloro-2-propenyloxy)phenoxy)butyl)oxime]
mortality at 50 µg/mL (Plutella xylostella; [1]): ≥ 80%

CCC(C)ON=Cc1ccc(CCOc2c(Cl)cc(OCC=C(Cl)Cl)cc2Cl)cc1 (centres unmarked) [(355), 4-(2-(2,6-dichloro-4-(3,3-dichloro-2-propenyloxy)phenoxy)ethyl)benzaldehyde O-sec-butyloxime]
mortality at 100 µg/mL (Helicoverpa armigera): ≥ 80%

CC(C)(C)ON=Cc1ccc(OCCCOc2c(Cl)cc(OCC=C(Cl)Cl)cc2Cl)cc1 [(291), 4-(3-(2,6-dichloro-4-(3,3-dichloro-2-propenyloxy)phenoxy)propyloxy)benzaldehyde O-t-butyloxime]
mortality at 100 µg/mL (Helicoverpa armigera): ≥ 80%

CCC(C)ON=Cc1ccc(COc2c(Cl)cc(OCC=C(Cl)Cl)cc2Cl)cc1 (centres unmarked) [(329), 4-(2,6-dichloro-4-(3,3-dichloro-2-propenyloxy)phenoxy)methylbenzaldehyde O-sec-butyloxime]
mortality at 100 µg/mL (Helicoverpa armigera): ≥ 80%

CC(=NOCCCCOc1c(Cl)cc(OCC=C(Cl)Cl)cc1Cl)c1ccc(C(F)(F)F)cc1 [(531), 4′-(trifluoromethyl)acetophenone O-(4-(2,6-dichloro-4-(3,3-dichloro-2-propenyloxy)phenoxy)butyl)oxime]
mortality at 100 µg/mL (Helicoverpa armigera): ≥ 80%

ClC(Cl)=CCON=Cc1ccc(OCCOc2c(Cl)cc(OCC=C(Cl)Cl)cc2Cl)cc1 [(281), 4-(2-(2,6-dichloro-4-(3,3-dichloro-2-propenyloxy)phenoxy)-ethoxy)benzaldehyde O-(3,3-dichloro-2-propenyl)oxime]
mortality at 50 µg/mL (Plutella xylostella; [1]): ≥ 80%

ClC(Cl)=CCON=Cc1ccc(CCOc2c(Cl)cc(OCC=C(Cl)Cl)cc2Cl)cc1 [(358), 4-(2-(2,6-dichloro-4-(3,3-dichloro-2-propenyloxy)phenoxy)ethyl)benzaldehyde O-(3,3-dichloro-2-propenyl)oxime]
mortality at 100 µg/mL (Helicoverpa armigera): ≥ 80%

ClC(Cl)=CCON=CCCOc1c(Cl)cc(OCC=C(Cl)Cl)cc1Cl [(75), 3-(2,6-dichloro-4-(3,3-dichloro-2-propenyloxy)phenoxy)propionaldehyde O-(3,3-dichloro-2-propenyl)oxime]
mortality at 50 µg/mL (Plutella xylostella; [1]): ≥ 80%

C=CCON=Cc1ccc(COc2c(Cl)cc(OCC=C(Cl)Cl)cc2Cl)cc1 [(312), 4-(2,6-dichloro-4-(3,3-dichloro-2-propenyloxy)phenoxymethyl)benzaldehyde O-(2-propenyl)oxime]
mortality at 100 µg/mL (Helicoverpa armigera): ≥ 80%

CC(CC(C)C)=NOCCCCCOc1c(Cl)cc(OCC=C(Cl)Cl)cc1Cl [(564), 4-methyl-2-pentanone O-(5-(2,6-dichloro-4-(3,3-dichloro-2-propenyloxy)phenoxy)pentyl)oxime]
mortality at 100 µg/mL (Helicoverpa armigera): ≥ 80%

FC(F)(F)c1ccc(C=NOCCCCOc2c(Cl)cc(OCC=C(Cl)Cl)cc2Cl)cc1 [(529), 4-(trifluoromethyl)benzaldehyde O-(4-(2,6-dichloro-4-(3,3-dichloro-2-propenyloxy)phenoxy)butyl)oxime]
mortality at 100 µg/mL (Helicoverpa armigera): ≥ 80%

ClC(Cl)=CCOc1cc(Cl)c(OCCCCCON=C2CCOCC2)c(Cl)c1 [(574), tetrahydro-4H-pyran-4-one O-(5-(2,6-dichloro-4-(3,3-dichloro-2-propenyloxy)phenoxy)pentyl)oxime]
mortality at 50 µg/mL (Plutella xylostella; [1]): ≥ 80% | mortality at 100 µg/mL (Cydia pomonella): ≥ 80%

CC(COCCCCCOc1c(Cl)cc(OCC=C(Cl)Cl)cc1Cl)=NOC(=O)NC(C)(C)C [(180), 5-(2,6-dichloro-4-(3,3-dichloro-2-propenyloxy)phenoxy)pentyloxyacetone O-(N-tert-butylcarbamoyl)oxime]
mortality at 50 µg/mL (Plutella xylostella): ≥ 80% | mortality at 500 µg/mL (Musca domestica): ≥ 80%

ClC(Cl)=CCON=CCCCCOc1c(Cl)cc(OCC=C(Cl)Cl)cc1Cl [(17), 5-(2,6-dichloro-4-(3,3-dichloro-2-propenyloxy)phenoxy)pentanal O-(3,3-dichloro-2-propenyl)oxime]
mortality at 100 µg/mL (Helicoverpa armigera): ≥ 80%

CC(C)(C)ON=CCOCCCCCOc1c(Cl)cc(OCC=C(Cl)Cl)cc1Cl [(14), 5-(2,6-dichloro-4-(3,3-dichloro-2-propenyloxy)phenoxy)pentyloxyacetaldehyde O-tert-butyloxime]
mortality at 100 µg/mL (Helicoverpa armigera): ≥ 80%

CC(C)CON=Cc1cccc(COc2c(Cl)cc(OCC=C(Cl)Cl)cc2Cl)c1 [(381), 3-((2,6-dichloro-4-(3,3-dichloro-2-propenyloxy)phenoxy)methyl)benzaldehyde O-iso-butyloxime]
mortality at 100 µg/mL (Cydia pomonella): ≥ 80%

C=CCON=Cc1ccc(OCCCOc2c(Cl)cc(OCC=C(Cl)Cl)cc2Cl)cc1 [(342), 4-(3-(2,6-dichloro-4-(3,3-dichloro-2-propenyloxy)phenoxy)propyloxy)benzaldehyde O-allyloxime]
mortality at 100 µg/mL (Helicoverpa armigera): ≥ 80%

ClC(Cl)=CCON=Cc1ccc(OCCCCOc2c(Cl)cc(OCC=C(Cl)Cl)cc2Cl)cc1 [(285), 4-(4-(2,6-dichloro-4-(3,3-dichloro-2-propenyloxy)phenoxy)butyloxy)benzaldehyde O-(3,3-dichloro-2-propenyl)oxime]
mortality at 50 µg/mL (Plutella xylostella; [1]): ≥ 80%

CC(C)(C)C=NOCCCCCOc1c(Cl)cc(OCC=C(Cl)Cl)cc1Cl [(545), trimethylacetaldehyde O-(5-(2,6-dichloro-4-(3,3-dichloro-2-propenyloxy)phenoxy)pentyl)oxime]
mortality at 100 µg/mL (Helicoverpa armigera): ≥ 80% | mortality at 500 µg/mL (Musca domestica; [2]): ≥ 80%

C=CCON=Cc1ccc(CCCOc2c(Cl)cc(OCC=C(Cl)Cl)cc2Cl)cc1 [(370), 4-(3-(2,6-dichloro-4-(3,3-dichloro-2-propenyloxy)phenoxy)propyl)benzaldehyde O-allyl oxime]
mortality at 50 µg/mL (Plutella xylostella; [1]): ≥ 80%

CC(=NOCCOc1c(Cl)cc(OCC=C(Cl)Cl)cc1Cl)c1ccc(C(F)(F)F)cc1 [(549), 4′-(trifluoromethyl)acetophenone O-(2-(2,6-dichloro-4-(3,3-dichloro-2-propenyloxy)phenoxy)ethyl)oxime]
mortality at 100 µg/mL (Cydia pomonella): ≥ 80%

C=CCON=Cc1ccc(CCOc2c(Cl)cc(OCC=C(Cl)Cl)cc2Cl)cc1 [(357), 4-(2-(2,6-dichloro-4-(3,3-dichloro-2-propenyloxy)phenoxy)ethyl)benzaldehyde O-allyloxime]
mortality at 100 µg/mL (Helicoverpa armigera): ≥ 80%

CC(=NOCC=C(Br)Br)c1ccc(OCCCCOc2c(Cl)cc(OCC=C(Cl)Cl)cc2Cl)cc1 [(300), 4′-(4-(2,6-dichloro-4-(3,3-dichloro-2-propenyloxy)phenoxy)butyloxy)acetophenone O-(3,3-dibromo-2-propenyl)oxime]
mortality at 100 µg/mL (Cydia pomonella): ≥ 80%

CC(=NO)c1ccc(OCCCCCOc2c(Cl)cc(OCC=C(Cl)Cl)cc2Cl)cc1 [(334), 4′-(5-(2,6-dichloro-4-(3,3-dichloro-2-propenyloxy)phenoxy)-pentyloxy)acetophenone oxime]
mortality at 50 µg/mL (Plutella xylostella; [1]): ≥ 80%

CCCCC(=NO)c1cccc(OCCCOc2c(Cl)cc(OCC=C(Cl)Cl)cc2Cl)c1 [(336), 3′-(3-(2,6-dichloro-4-(3,3-dichloro-2-propenyloxy)phenoxy)propyloxy)valerophenone oxime]
mortality at 50 µg/mL (Plutella xylostella; [1]): ≥ 80%

FC(F)(F)c1ccc(C=NOCCOc2c(Cl)cc(OCC=C(Cl)Cl)cc2Cl)cc1 [(550), 4-(trifluoromethyl)benzaldehyde O-(2-(2,6-dichloro-4-(3,3-dichloro-2-propenyloxy)phenoxy)ethyl)oxime]
mortality at 100 µg/mL (Cydia pomonella): ≥ 80%

CCON=Cc1ccc(OCCCOc2c(Cl)cc(OCC=C(Cl)Cl)cc2Cl)cc1 [(288), 4-(3-(2,6-dichloro-4-(3,3-dichloro-2-propenyloxy)phenoxy)propyloxy)benzaldehyde O-ethyloxime]
mortality at 100 µg/mL (Helicoverpa armigera): ≥ 80%

CCON=Cc1cccc(COc2c(Cl)cc(OCC=C(Cl)Cl)cc2Cl)c1 [(378), 3-((2,6-dichloro-4-(3,3-dichloro-2-propenyloxy)phenoxy)methyl)benzaldehyde O-ethyloxime]
mortality at 100 µg/mL (Cydia pomonella): ≥ 80% | mortality at 500 µg/mL (Musca domestica; [2]): ≥ 80%

CC(C)Oc1ccc(C=NOCCCCOc2c(Cl)cc(OCC=C(Cl)Cl)cc2Cl)cc1 [(579), 4-isopropoxybenzaldehyde O-(4-(2,6-dichloro-4-(3,3-dichloro-2-propenyloxy)phenoxy)butyl)oxime]
mortality at 100 µg/mL (Cydia pomonella): ≥ 80%
